Results taken from ChEMBL document CHEMBL1201862, “PubChem BioAssay data set” (2004).
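Compound exposure: 48 hours, 5 concentrations, 96-well plates. GI50 = concentration required for 50% inhibition of growth.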 Active and inactive are the calls of the source. Rule as the data show it: active = GI50 up to about 1.1 µM and inactive = higher.

What was measured:
Test in all cases: growth of human tumour cells (NCI), 48 h
786-0 = test system: 786-0
A498 = test system: A498
CAKI-1 = test system: CAKI-1
CCRF-CEM = test system: CCRF-CEM
HCT-116 = test system: HCT-116
HOP-62 = test system: HOP-62
K562 = test system: K562
MOLT-4 = test system: MOLT-4
NCI-H226 = test system: NCI-H226
OVCAR-4 = test system: OVCAR-4
RXF 393 = test system: RXF 393
SF-539 = test system: SF-539
SK-MEL-2 = test system: SK-MEL-2
SK-MEL-5 = test system: SK-MEL-5
SK-OV-3 = test system: SK-OV-3
SNB-19 = test system: SNB-19
U-251 = test system: U-251
RPMI-8226 = test system: RPMI-8226

Measured: GI50

N=C(CC(=O)Nc1ccc(Cl)cc1)Nc1ccccc1
inactive: 786-0 > 100 µM | A498 > 100 µM | CAKI-1 > 100 µM | CCRF-CEM > 10 µM | HCT-116 > 100 µM | HOP-62 > 100 µM | K562 > 100 µM | MOLT-4 > 100 µM | NCI-H226 > 100 µM | OVCAR-4 > 100 µM | RXF 393 > 100 µM | SF-539 > 100 µM | SK-MEL-2 > 100 µM | SK-MEL-5 > 100 µM | SK-OV-3 > 100 µM | SNB-19 > 100 µM | U-251 > 100 µM

CSC(C1c2ccccc2N(C)C2=NC(=O)N(C)C(=O)C21Cl)S(=O)(=O)c1ccc(C)cc1 (stereo unspecified)
inactive: 786-0 18.8 µM | A498 > 100 µM | CAKI-1 24.9 µM | CCRF-CEM 9.04 µM | HCT-116 31.8 µM | HOP-62 > 100 µM | K562 16.7 µM | MOLT-4 17.5 µM | NCI-H226 > 100 µM | OVCAR-4 61.2 µM | RPMI-8226 26.2 µM | SF-539 42 µM | SK-MEL-2 33 µM | SK-MEL-5 57.4 µM | SK-OV-3 > 100 µM | SNB-19 64.3 µM | U-251 > 100 µM

O=c1c2cc(Br)cc(Br)c2nc(CCCl)n1-c1ccc(O)c([N+](=O)[O-])c1
inactive: 786-0 18.3 µM | A498 25.8 µM | CCRF-CEM 20.7 µM | HCT-116 14.7 µM | HOP-62 18.7 µM | K562 33.3 µM | MOLT-4 23.8 µM | NCI-H226 19.6 µM | OVCAR-4 15.5 µM | RPMI-8226 30.2 µM | SF-539 21.4 µM | SK-MEL-2 18.9 µM | SK-MEL-5 20.1 µM | SK-OV-3 15.8 µM | SNB-19 20.1 µM | U-251 18.4 µM

CCCCCCCCCCCc1nnc(N)o1
inactive: 786-0 > 100 µM | HCT-116 > 100 µM | HOP-62 > 100 µM | K562 51.5 µM | MOLT-4 26.6 µM | NCI-H226 > 100 µM | OVCAR-4 65.2 µM | RPMI-8226 > 100 µM | SF-539 > 100 µM | SK-MEL-2 > 100 µM | SK-OV-3 > 100 µM | SNB-19 18.9 µM | U-251 > 100 µM

COc1cc(C(=O)C/C(CCC(=O)Nc2ccccc2[N+](=O)[O-])=N\NC(=O)C(N)=O)ccc1O
inactive: 786-0 > 100 µM | CAKI-1 > 100 µM | CCRF-CEM > 100 µM | HCT-116 > 100 µM | HOP-62 > 100 µM | K562 > 100 µM | MOLT-4 > 100 µM | NCI-H226 > 100 µM | OVCAR-4 > 100 µM | RXF 393 76.4 µM | SF-539 > 100 µM | SK-MEL-2 > 100 µM | SK-OV-3 > 100 µM | SNB-19 > 100 µM | U-251 > 100 µM

CC1CC#CCOC(=O)CCCC1=O (stereo unspecified)
inactive: 786-0 > 100 µM | CCRF-CEM > 100 µM | HCT-116 > 100 µM | HOP-62 > 100 µM | K562 > 100 µM | MOLT-4 > 100 µM | NCI-H226 > 100 µM | OVCAR-4 > 100 µM | RPMI-8226 > 100 µM | RXF 393 > 100 µM | SF-539 > 100 µM | SK-MEL-5 > 100 µM | SK-OV-3 > 100 µM | SNB-19 > 100 µM | U-251 > 100 µM

C[N+](C)=c1[nH]c2ccccc2[nH]1
inactive: 786-0 > 100 µM | CAKI-1 > 100 µM | CCRF-CEM > 100 µM | HOP-62 > 100 µM | K562 > 100 µM | MOLT-4 > 100 µM | OVCAR-4 > 100 µM | RPMI-8226 > 100 µM | RXF 393 > 100 µM | SF-539 > 100 µM | SK-MEL-2 > 100 µM | SK-MEL-5 > 100 µM | SK-OV-3 > 100 µM | U-251 > 100 µM

COP12(OC)NC(=O)OC1(C(F)(F)F)c1ccccc1O2 (stereo unspecified)
inactive: 786-0 > 100 µM | CCRF-CEM > 100 µM | HCT-116 > 100 µM | K562 > 100 µM | MOLT-4 > 100 µM | NCI-H226 > 100 µM | OVCAR-4 > 100 µM | RXF 393 > 100 µM | SF-539 > 100 µM | SK-MEL-2 > 100 µM | SK-MEL-5 > 100 µM | SK-OV-3 > 100 µM | SNB-19 > 100 µM

O=P1(c2ccccc2)CCCCC1
inactive: 786-0 > 100 µM | A498 > 100 µM | CCRF-CEM > 100 µM | HCT-116 > 100 µM | HOP-62 > 100 µM | K562 > 100 µM | MOLT-4 > 100 µM | NCI-H226 > 100 µM | OVCAR-4 > 100 µM | RPMI-8226 > 100 µM | RXF 393 > 100 µM | SF-539 > 100 µM | SK-MEL-2 > 100 µM | SK-MEL-5 > 100 µM | SK-OV-3 > 100 µM | SNB-19 > 100 µM | U-251 > 100 µM

CC(=O)OCC1OC(n2cccnc2=O)C(OC(C)=O)C1OC(C)=O (stereo unspecified)
inactive: 786-0 > 100 µM | A498 > 100 µM | CAKI-1 > 100 µM | CCRF-CEM > 100 µM | HCT-116 > 100 µM | HOP-62 > 100 µM | K562 > 100 µM | MOLT-4 > 100 µM | NCI-H226 > 100 µM | OVCAR-4 > 100 µM | RPMI-8226 > 100 µM | RXF 393 > 100 µM | SK-MEL-2 > 100 µM | SK-MEL-5 > 100 µM | SK-OV-3 > 100 µM | SNB-19 > 100 µM | U-251 > 100 µM

Cc1cccc(O)c(=O)c1
inactive: 786-0 9.12 µM | A498 54 µM | CAKI-1 63.1 µM | CCRF-CEM 3.48 µM | HCT-116 11.9 µM | HOP-62 39.2 µM | MOLT-4 6.38 µM | NCI-H226 3.3 µM | OVCAR-4 45.8 µM | RPMI-8226 7.6 µM | RXF 393 > 100 µM | SF-539 29.6 µM | SK-MEL-5 28.1 µM | SK-OV-3 > 100 µM | SNB-19 92.9 µM | U-251 21.4 µM

COc1ccc(NC(=O)C2C(=O)N(c3ccc(OC)cc3)C(=O)/C2=N\NC(N)=O)cc1 (stereo unspecified)
inactive: 786-0 21.5 µM | A498 22.1 µM | CAKI-1 > 100 µM | HCT-116 21.2 µM | HOP-62 16.3 µM | K562 > 100 µM | NCI-H226 21.8 µM | OVCAR-4 34.1 µM | RPMI-8226 > 100 µM | RXF 393 22.5 µM | SF-539 16.8 µM | SK-MEL-2 40.9 µM | SK-MEL-5 17.8 µM | SK-OV-3 22.1 µM | SNB-19 41.1 µM | U-251 18.5 µM

C(=C1\CCC/C(=C/c2ccccc2)C1=NNc1ccccc1)/c1ccccc1
inactive: 786-0 > 100 µM | A498 > 100 µM | CCRF-CEM > 100 µM | HCT-116 > 100 µM | HOP-62 46.7 µM | K562 > 100 µM | MOLT-4 > 100 µM | OVCAR-4 > 100 µM | RPMI-8226 > 100 µM | RXF 393 38.2 µM | SF-539 > 100 µM | SK-MEL-2 > 100 µM | SK-MEL-5 > 100 µM | SK-OV-3 > 100 µM | SNB-19 > 100 µM | U-251 > 100 µM

Cc1ccc2nc3c(Cl)cc(=O)cc-3sc2c1
inactive: 786-0 19.8 µM | CAKI-1 27.4 µM | CCRF-CEM 1.96 µM | HCT-116 17.9 µM | K562 17.6 µM | MOLT-4 10.9 µM | NCI-H226 27.2 µM | OVCAR-4 16.1 µM | SF-539 3.38 µM | SK-MEL-2 > 10 µM | SK-MEL-5 17.1 µM | SK-OV-3 > 10 µM | SNB-19 > 10 µM | U-251 20.7 µM

COc1cc(C2c3cc4c(cc3[C@@H](Nc3ccc(N(C)C)cc3)[C@H]3COC(=O)C23)OCO4)cc(OC)c1O (stereo partly specified)
active: 786-0 0.228 µM | A498 0.551 µM | CAKI-1 0.141 µM | CCRF-CEM 0.153 µM | HCT-116 0.582 µM | HOP-62 0.103 µM | K562 0.537 µM | MOLT-4 0.108 µM | NCI-H226 0.0545 µM | RXF 393 0.951 µM | SF-539 0.316 µM | SK-MEL-5 0.873 µM | SK-OV-3 0.212 µM | SNB-19 0.273 µM | U-251 0.149 µM
inactive: OVCAR-4 9.35 µM | SK-MEL-2 2.37 µM

CC1(C)CCCC2(C)[C@@H]1CC[C@@]13CC(=O)[C@@](C)(CC[C@@H]21)C3 (stereo partly specified)
inactive: 786-0 > 100 µM | CAKI-1 > 100 µM | CCRF-CEM > 100 µM | HCT-116 46.1 µM | HOP-62 82.2 µM | K562 > 100 µM | MOLT-4 57.4 µM | NCI-H226 83.4 µM | OVCAR-4 87.9 µM | RPMI-8226 57 µM | RXF 393 18.3 µM | SF-539 > 100 µM | SK-MEL-5 52.5 µM | SK-OV-3 > 100 µM | SNB-19 > 100 µM | U-251 49 µM

COc1ccc(-c2csc(=[N+]3CCCCC3)s2)cc1
active: U-251 0.743 µM
inactive: 786-0 4.83 µM | CAKI-1 2.36 µM | CCRF-CEM 1.62 µM | HCT-116 4.42 µM | HOP-62 2.54 µM | K562 2.23 µM | MOLT-4 2.53 µM | NCI-H226 2.92 µM | OVCAR-4 4.48 µM | RPMI-8226 2.11 µM | RXF 393 4.14 µM | SF-539 4.56 µM | SK-MEL-2 3.63 µM | SK-MEL-5 1.87 µM | SK-OV-3 3.41 µM | SNB-19 1.67 µM
